PubChem BioAssay (NCI)
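Where inhibition never reached the appropriate level, the endpoint shown equals the highest concentration tested. Otherwise, values were interpolated linearly from a five-concentration, 48-hour dose response in 96-well plates. GI50: concentration for 50% inhibition of growth. Definition used: TGI = concentration required for complete inhibition of growth.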

Tests used:
Assay in all cases: NCI-60 cell line screen, 48 h
COLO 205 colon = system: COLO 205 colon
MDA-MB-231 breast = system: MDA-MB-231 breast
SK-MEL-5 melanoma = system: SK-MEL-5 melanoma
HS 578T breast = system: HS 578T breast
HCT-116 colon = system: HCT-116 colon
ACHN renal = system: ACHN renal
NCI-H23 lung = system: NCI-H23 lung
SK-MEL-2 melanoma = system: SK-MEL-2 melanoma
K-562 leukemia = system: K-562 leukemia
HL-60(TB) leukemia = system: HL-60(TB) leukemia
OVCAR-3 ovarian = system: OVCAR-3 ovarian
MCF7 breast = system: MCF7 breast
SF-295 CNS = system: SF-295 CNS
LOX IMVI melanoma = system: LOX IMVI melanoma
M14 melanoma = system: M14 melanoma
SF-268 CNS = system: SF-268 CNS
SK-MEL-28 melanoma = system: SK-MEL-28 melanoma
NCI-H226 lung = system: NCI-H226 lung
TK-10 renal = system: TK-10 renal
DU-145 prostate = system: DU-145 prostate
PC-3 prostate = system: PC-3 prostate
786-0 renal = system: 786-0 renal
NCI-H522 lung = system: NCI-H522 lung
SNB-19 CNS = system: SNB-19 CNS
UACC-62 melanoma = system: UACC-62 melanoma
HOP-92 NSCLC = system: HOP-92 NSCLC
NCI-H460 lung = system: NCI-H460 lung
HT29 colon = system: HT29 colon
NCI/ADR-RES ovarian = system: NCI/ADR-RES ovarian
RXF 393 renal = system: RXF 393 renal
SF-539 CNS = system: SF-539 CNS
RPMI-8226 leukemia = system: RPMI-8226 leukemia
MOLT-4 leukemia = system: MOLT-4 leukemia
A498 renal = system: A498 renal
IGROV1 ovarian = system: IGROV1 ovarian
KM12 colon = system: KM12 colon
CCRF-CEM leukemia = system: CCRF-CEM leukemia
SK-OV-3 ovarian = system: SK-OV-3 ovarian
MALME-3M melanoma = system: MALME-3M melanoma
SN12C renal = system: SN12C renal
SR leukemia = system: SR leukemia
MDA-MB-435 = system: MDA-MB-435
CAKI-1 renal = system: CAKI-1 renal
UACC-257 melanoma = system: UACC-257 melanoma
SNB-75 CNS = system: SNB-75 CNS
OVCAR-5 ovarian = system: OVCAR-5 ovarian
A549 NSCLC = system: A549 NSCLC
HOP-62 NSCLC = system: HOP-62 NSCLC
SW-620 colon = system: SW-620 colon
EKVX NSCLC = system: EKVX NSCLC
OVCAR-8 ovarian = system: OVCAR-8 ovarian
HCT-15 colon = system: HCT-15 colon
U251 CNS = system: U251 CNS
UO-31 renal = system: UO-31 renal
OVCAR-4 ovarian = system: OVCAR-4 ovarian
HCC-2998 colon = system: HCC-2998 colon

N#C/C(=C1C=C/C(=N/O)C(Cl)=C/1)c1ccc(Cl)cc1
GI50 (COLO 205 colon): 12.2 µM
TGI (COLO 205 colon): 31.1 µM
GI50 (MDA-MB-231 breast): 7.24 µM
TGI (MDA-MB-231 breast): 23.4 µM
GI50 (SK-MEL-5 melanoma): 16.5 µM
TGI (SK-MEL-5 melanoma): 40.3 µM
GI50 (HS 578T breast): 6.65 µM
TGI (HS 578T breast): 44.3 µM
GI50 (HCT-116 colon): 1.82 µM
TGI (HCT-116 colon): 4.39 µM
GI50 (ACHN renal): 4.47 µM
TGI (ACHN renal): 18.4 µM
GI50 (NCI-H23 lung): 25.9 µM
TGI (NCI-H23 lung): > 100 µM
GI50 (SK-MEL-2 melanoma): 7.8 µM
TGI (SK-MEL-2 melanoma): 24.8 µM
GI50 (K-562 leukemia): 1.16 µM
TGI (K-562 leukemia): 8.51 µM
GI50 (HL-60(TB) leukemia): 1.24 µM
TGI (HL-60(TB) leukemia): 5 µM
GI50 (OVCAR-3 ovarian): 3.97 µM
TGI (OVCAR-3 ovarian): 13.7 µM
GI50 (MCF7 breast): 2.42 µM
TGI (MCF7 breast): 8.89 µM
GI50 (SF-295 CNS): 4.08 µM
TGI (SF-295 CNS): 14.4 µM
GI50 (LOX IMVI melanoma): 2.62 µM
TGI (LOX IMVI melanoma): 10.3 µM
GI50 (M14 melanoma): 11.5 µM
TGI (M14 melanoma): 31.6 µM
GI50 (SF-268 CNS): 3.66 µM
TGI (SF-268 CNS): 14.7 µM
GI50 (SK-MEL-28 melanoma): 30.1 µM
TGI (SK-MEL-28 melanoma): > 100 µM
GI50 (NCI-H226 lung): 7.59 µM
TGI (NCI-H226 lung): 27.3 µM
GI50 (TK-10 renal): 5.25 µM
TGI (TK-10 renal): 20.2 µM
GI50 (DU-145 prostate): 1.98 µM
TGI (DU-145 prostate): 4.1 µM
GI50 (PC-3 prostate): 4.99 µM
TGI (PC-3 prostate): 71.1 µM
GI50 (786-0 renal): 5.16 µM
TGI (786-0 renal): 19.1 µM
GI50 (NCI-H522 lung): 4.12 µM
TGI (NCI-H522 lung): 15.7 µM
GI50 (SNB-19 CNS): 18.4 µM
TGI (SNB-19 CNS): > 100 µM
GI50 (UACC-62 melanoma): 4.01 µM
TGI (UACC-62 melanoma): 18 µM
GI50 (HOP-92 NSCLC): 7.92 µM
TGI (HOP-92 NSCLC): 51.1 µM
GI50 (NCI-H460 lung): 3.8 µM
TGI (NCI-H460 lung): 15.2 µM
GI50 (HT29 colon): 5.46 µM
TGI (HT29 colon): 19.8 µM
GI50 (NCI/ADR-RES ovarian): 4.7 µM
TGI (NCI/ADR-RES ovarian): 26.1 µM
GI50 (RXF 393 renal): 13.5 µM
TGI (RXF 393 renal): 36.1 µM
GI50 (SF-539 CNS): 3.16 µM
TGI (SF-539 CNS): 11.9 µM
GI50 (RPMI-8226 leukemia): 1.61 µM
TGI (RPMI-8226 leukemia): 11.8 µM
GI50 (MOLT-4 leukemia): 2.35 µM
TGI (MOLT-4 leukemia): 7.65 µM
GI50 (A498 renal): 3.07 µM
TGI (A498 renal): 20.4 µM
GI50 (IGROV1 ovarian): 2.66 µM
TGI (IGROV1 ovarian): 7.89 µM
GI50 (KM12 colon): 0.721 µM
TGI (KM12 colon): 10.1 µM
GI50 (CCRF-CEM leukemia): 1.96 µM
TGI (CCRF-CEM leukemia): 6.93 µM
GI50 (SK-OV-3 ovarian): 15.7 µM
TGI (SK-OV-3 ovarian): 41.6 µM
GI50 (MALME-3M melanoma): 12.2 µM
TGI (MALME-3M melanoma): 29.3 µM
GI50 (SN12C renal): 2.99 µM
TGI (SN12C renal): 8.02 µM
GI50 (SR leukemia): 1.36 µM
TGI (SR leukemia): 4.05 µM
GI50 (MDA-MB-435): 1.96 µM
TGI (MDA-MB-435): 8.45 µM
GI50 (CAKI-1 renal): 3.63 µM
TGI (CAKI-1 renal): 14.1 µM
GI50 (UACC-257 melanoma): 21.2 µM
TGI (UACC-257 melanoma): > 100 µM
GI50 (SNB-75 CNS): 3.78 µM
TGI (SNB-75 CNS): 18.4 µM
GI50 (OVCAR-5 ovarian): 12.7 µM
TGI (OVCAR-5 ovarian): 43.4 µM
GI50 (A549 NSCLC): 15.6 µM
TGI (A549 NSCLC): 46.4 µM
GI50 (HOP-62 NSCLC): 4.29 µM
TGI (HOP-62 NSCLC): 19.1 µM
GI50 (SW-620 colon): 3.79 µM
TGI (SW-620 colon): 15.1 µM
GI50 (EKVX NSCLC): 10.4 µM
TGI (EKVX NSCLC): 59.2 µM
GI50 (OVCAR-8 ovarian): 12.3 µM
TGI (OVCAR-8 ovarian): 51.9 µM
GI50 (HCT-15 colon): 6.67 µM
TGI (HCT-15 colon): 77.7 µM
GI50 (U251 CNS): 5.7 µM
TGI (U251 CNS): 20 µM
GI50 (UO-31 renal): 3.33 µM
TGI (UO-31 renal): 13 µM
GI50 (OVCAR-4 ovarian): 17 µM
TGI (OVCAR-4 ovarian): 91.2 µM
GI50 (HCC-2998 colon): 19.1 µM
TGI (HCC-2998 colon): 38.4 µM
